The assay concerns glycogen-phosphorylase (PYGL) gene expression. Kind of assay: PYGL gene expression by qRT-PCR in Human Follicle Dermal Papilla Cells. The format is cell-based. The conditions noted are these: 6 μg/mL; serum-starved HFDPC, 24 h treatment; compared with positive control (starved cells), p<0.005. The procedure: The PromoCell® Human Follicle Dermal Papilla Cells (HFDPC) cell line was used to test the inhibitory activity on PYGL of maslinic acid and a Swertia chirata extract (dry extract on maltodextrins) alone or as a combination.
HFDPCs (DP; PromoCell GmbH, Heidelberg, Germany, batch 325Z017.1 and 322Z030.1) were grown in base culture medium (Follicle Dermal Papilla Cell Growth Medium) (PromoCell GmbH) supplemented with 4 μL/mL of bovine pituitary gland extract (Bovine Pituitary Extract), 0.04 mL/mL fetal serum, 1 ng/ml recombinant human fibroblast growth factor, 5 μg/mL recombinant human insulin (PromoCell). Cells were cultured with […] primocin (Invivogen, Toulouse, France, #ant-pm-2) in a humidified incubator with 5% CO2 at 37° C.
POSITIVE CONTROL: Cells treated in Follicle Dermal Papilla Cell Growth medium without serum (starved) under the same culture conditions.
NEGATIVE CONTROL: Untreated cells in Follicle Dermal Papilla Cell Growth medium under the same culture conditions.
PYGL gene expression was studied by RT-PCR.
When cells (HFDPC) reached about 80% confluence, they were detached with trypsin/EDTA and seeded at a density of 1×10^6 cells/mL into 12-well plates and incubated at 37° C., 5% CO2 (24 h). […]

In the case of `CC1(C)CC[C@]2(C(=O)O)CC[C@]3(C)C(=CC[C@@H]4[C@@]5(C)C[C@@H](O)[C@H](O)C(C)(C)[C@@H]5CC[C@]43C)[C@@H]2C1` [maslinic acid, (2α,3β)-2,3-dihydroxyolean-12-en-28-oic acid], the “inhibition of PYGL gene expression” value is “significantly inhibit (p<0.005)”.

(Values after US20260224470A1, “Composition For Improving The Aesthetic Appearance Of Hair And Skin Appendages” (priority 2023, published 2026).)
